Data: article PMC12309968 (iScience, 2025)
Converted amounts (≈) assume the structure as drawn. “Also recorded” adds a separate entry of the source. Read-outs that look alike come from different tables or passages of the source. Positions of bridges follow the written chain, without caps; N, C: chain ends. Non-standard residues stand in square brackets, D forms with d. Residues, ends and D or L forms follow the SMILES beside them. *: point of attachment. Octanoyl = CCCCCCCC(=O)*; Dab = NCC[C@H](N)C(=O)O; Abu = CC[C@H](N)C(=O)O

What was measured:
E. coli = details: cited from earlier work
SOS response = details: cited from earlier work
[1] = test system: Stx2a binding to TLR4-expressing Gb3Cer-lacking human neutrophils; details: cited from earlier work
[2] = test system: Raji cells (Gb3Cer-expressing); details: cited from earlier work
[3] = test system: monocyte/platelet aggregates; format: cell-based, human
[4] = test system: human renal tubular cells; details: cited from earlier work
[5] = test system: neutrophil/platelet aggregates; format: cell-based, human
[6] = test system: interaction between LPS and TLR4; details: cited from earlier work
Shigella = details: cited from earlier work
cynomolgus monkey = details: in vivo; cited from earlier work
E. coli SOS response = details: cited from earlier work
Stx2a = Stx2a (Escherichia phage 933W, UniProt P09385+P09386); assay: biochemical; format: binding, E. coli (C600-933W strain)
[7] = target: lactate dehydrogenase A (LDH-A), tetrameric form (Homo sapiens, UniProt P00338); assay: biochemical; format: binding
CD-1 mice = details: mouse, in vivo, iv
[8] = test system: Stx2a binding to TLR4-expressing Gb3Cer-lacking human neutrophils
[9] = in vivo; cited from earlier work

For polymyxin B, the MIC (E. coli) is given as 1 µg/mL, the “concentration eliciting the SOS response” value (SOS response) is given as “higher than 1 μg/mL” and the “IC50 in inhibiting the binding of Stx2a to human neutrophils” value [1] is given as 3.5 µg/mL. The “effect on Stx2a/TLR4 interactions, binding of Stx2a to leukocytes” value [1] was “effectively impairs the Stx2a/TLR4 interactions; also recorded: does block the binding of Stx2a to leukocytes at μg/mL concentrations that are also highly bactericidal”, the “lack of protection of Gb3Cer-expressing Raji cells from Stx2a” value [2] was “as previously shown with polymyxin B” and the “effect on monocyte/platelet aggregates” value [3] was “ineffective at these concentrations”. The “IC50, cytotoxicity to human renal tubular cells” value [4] was 18 µg/mL, the “effect on neutrophil/platelet aggregates” value [5] was “ineffective at these concentrations” and the “block of LPS/TLR4 interaction” value [6] was “known to block the interaction between the bacterial endotoxin (lipopolysaccharide [LPS]) and TLR4”. The “concentration inducing release of considerable amounts of Stx by Shigella” value (Shigella) was “higher than 1 μg/mL” and the “tolerability” value (cynomolgus monkey) was “had to be euthanized because of severe nephrotoxicity”.

For CO[C@@]12[C@H](COC(N)=O)C3=C(C(=O)C(C)=C(N)C3=O)N1C[C@@H]1N[C@@H]12 [mitomycin C], the MIC/SIC ratio (E. coli SOS response) is given as 1.4 and the “SOS-inducing action” value (E. coli SOS response) is given as “strong SOS-inducing actions”.

For CNC(C)C1CCC(N)C(OC2C(N)CC(N)C(OC3OCC(C)(O)C(NC)C3O)C2O)O1 (stereo not drawn) [gentamicin], the MIC/SIC ratio (E. coli SOS response) is listed as 1.8 and the “SOS-inducing action” value (E. coli SOS response) is listed as “poor”.

In the case of Triton X-100, the “hemolysis” value (human erythrocytes) is reported as “no hemolysis occurred, unlike treatment with Triton X-100, chosen as a positive control”.

For CCCCCCCC(=O)N[C@@H](CCN)C(=O)N[C@H](C(=O)N[C@@H](C(=O)N[C@H]1CCNC(=O)[C@H]([C@@H](C)O)NC(=O)[C@H](CCN)NC(=O)[C@H](CC)NC(=O)[C@H](CC(C)C)NC(=O)[C@@H](Cc2ccccc2)NC(=O)[C@H](CCN)NC1=O)[C@H](C)O)[C@@H](C)O [NAB815] (Octanoyl-[Dab]T[dT][Dab][Dab][dF]L[Abu][Dab]T; lactam 4-C), the Kd (Stx2a) was 0.05 µM, the “maximum reduction (quenching) of Stx2a fluorescence” value (Stx2a) was “approximately 10%” and the Kd [7] was 10 µM. For the same compound, the “hemolysis” value (human erythrocytes) was “no hemolysis occurred”, the “serum creatinine and urea” value (CD-1 mice) was “No changes in serum creatinine and urea were found” and the “IC50 in inhibiting the binding of Stx2a to human neutrophils” value [8] was 0.057 µg/mL. For the same compound, the “necrotic leukocytes (7-AAD+)” value (human leukocytes) was “the number of necrotic cells was negligible”, the “IC50, cytotoxicity to human renal tubular cells” value [4] was 334 µg/mL (≈ 284 µM) and the “cytotoxicity lower than that of polymyxin B (fold)” value [4] was “approximately 20 times”. The “serum creatinine, blood urea nitrogen, urinary biomarkers” value (cynomolgus monkey) was “no significant increase in serum creatinine, blood urea nitrogen, or in the urinary biomarkers tested”, the “tolerability” value (cynomolgus monkey) was “well tolerated” and the “excretion into urine relative to polymyxin B” value [9] was “approximately 10 times”.

For O=C(O)c1cn(C2CC2)c2cc(N3CCNCC3)c(F)cc2c1=O [ciprofloxacin], the MIC/SIC ratio (E. coli SOS response) is listed as 8 and the “SOS-inducing action” value (E. coli SOS response) is listed as “frequently used as a model antibiotic inducing the SOS response”.
